The record followed here is patent US20100111874A1, “METHOD OF CANCER DETECTION AND TREATMENT” (University of Medicine and Dentistry of New Jresey, priority 2007, published 2010).

Holding throughout (assay type): cell-based
In test [1] the target is T1, TOP1-DNA covalent complexes (Homo sapiens, UniProt P11387).
T1 construct: endogenous in cells; host or cells: MCF7 and MCF7/RC breast cancer cells
T1 sequence (P11387 2-765 limits assumed): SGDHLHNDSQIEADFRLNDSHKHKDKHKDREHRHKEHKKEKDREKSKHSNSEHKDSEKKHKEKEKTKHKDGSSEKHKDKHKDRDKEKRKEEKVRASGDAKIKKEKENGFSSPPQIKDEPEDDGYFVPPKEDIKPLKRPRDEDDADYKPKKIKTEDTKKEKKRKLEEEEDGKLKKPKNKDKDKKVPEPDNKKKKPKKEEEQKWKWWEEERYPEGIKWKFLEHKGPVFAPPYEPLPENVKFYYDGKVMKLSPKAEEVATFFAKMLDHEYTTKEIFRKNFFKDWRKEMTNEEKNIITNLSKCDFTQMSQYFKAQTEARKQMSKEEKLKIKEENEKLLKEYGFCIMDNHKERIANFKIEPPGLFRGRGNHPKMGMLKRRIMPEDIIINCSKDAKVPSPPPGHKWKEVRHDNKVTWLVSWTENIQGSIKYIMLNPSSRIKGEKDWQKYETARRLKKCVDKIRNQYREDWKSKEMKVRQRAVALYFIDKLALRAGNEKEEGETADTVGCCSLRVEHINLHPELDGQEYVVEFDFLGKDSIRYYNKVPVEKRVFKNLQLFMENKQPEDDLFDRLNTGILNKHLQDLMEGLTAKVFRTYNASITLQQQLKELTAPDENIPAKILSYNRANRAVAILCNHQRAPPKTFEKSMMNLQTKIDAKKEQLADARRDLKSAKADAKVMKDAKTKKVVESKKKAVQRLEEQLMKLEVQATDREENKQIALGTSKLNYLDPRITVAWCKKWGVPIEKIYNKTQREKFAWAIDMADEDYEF
Kind of test: Band depletion assay for TOP1 cleavage complexes. The settings on record: MCF7/RC vs MCF7; CPT 25 μM for 15 min. As for the experimental part: Band depletion assay for TOP1 cleavage complexes. Cells (106/sample) are treated with CPT (25 μM in 1% DMSO) for various times at 37° C. Cells are then lysed with 0.2 N NaOH containing 2 mM EDTA as described previously (14). Cell lysates are then neutralized with 1/10 volume of a solution containing 10% NP-40, 1 M Tris (pH 7.4), 0.1 M MgCl2, 0.1 M CaCl2, 10 mM dithiothreitol, 1 mM EGTA, and a mixture of peptide protease inhibitors (100 μg/ml each of leupeptin, pepstatin, and aprotinin), followed by the addition of another 1/10 volume of 2 N HCl. Reactions are terminated by the addition of SDS-PAGE sample buffer. Immunoblotting analysis of cell lysates is carried out using anti-Scl-70 antibody from scleroderma patients as described above.

The subject of a further test is MCF7 breast cancer cells. Kind of test: MTT assay, CPT IC50. Conditions: Homo sapiens, 96 h, CPT continuously for 4 days. On the procedure: (§1) Cell survival assays. MTT assay: Cells (3000 cells/well) are plated in 96-well microtiter plates and incubated at 37° C. in a CO2 incubator. For determination of IC50, cells are treated with varying concentrations of CPT for four days. Cells are then incubated with MTT (3-(4,5-dimethylthiazol-2-yl)-2,5-diphenyltetrazolium bromide) for 4 hrs at 37° C. The dye produced by viable cells is dissolved in DMSO and the optical density measured at 570 nm. All assays are performed at least twice in six replicate wells. Clonogenic assay: Cells (100-500 cells/plate) are plated in 6-well tissue culture plates and incubated at 37° C. in a CO2 incubator. Cells are then treated with various concentrations of CPT for 1 hr. Following CPT treatment, cells are washed free of CPT and placed in fresh medium. After 10 days, survived colonies are stained with Methylene blue and counted using the Minicount machine. Cell counting assay: Logarithmically growing cells are treated with various concentrations of CPT for 1 hr. CPT is then removed by washing the plates with CPT-free medium four times. Washed cells are allowed to grow in CPT-free medium for 4 days. Cell survival is determined by counting cells using the Coulter counter after trypsinization.
(§2) Example No. 6. […] Panel A, formation of cleavable complexes in MCF7 and MCF7/RC breast cancer cells. […]
In general terms: Tetrazolium dyes change colour on reduction, which living cells bring about.

The subject of test [2] is MCF7/RC breast cancer cells. As to the kind of experiment: MTT assay, CPT IC50. The settings on record: Homo sapiens, 96 h; MCF7/RC low-level CPT-resistant clone; CPT continuously for 4 days. On the procedure: as §1, §2

Take `CC[C@@]1(O)C(=O)OCc2c1cc1n(c2=O)Cc2cc3ccccc3nc2-1` [CPT, camptothecin]: the “amount of TOP1-DNA covalent complexes” value in test [1] is reported as “No change”. The concentration for half-maximal inhibition (IC50) was 0.0035 µM in the test with MCF7 breast cancer cells and 0.03 µM in test [2].

Broadly, the IC50 is the point on the concentration scale where inhibition reaches its midpoint. The low end stands for greater potency, the high end for weaker potency.
